Assay results from patent US20060264447A1, “Fungicidal mixtures for controlling rice pathogens” (priority 2003, published 2006).

Test system: Cochliobolus miyabeanus
Test: Activity against brown spot of rice caused by Cochliobolus miyabeanus, protective application
Format: in vivo
Details: individual active compound, rice seedlings Tai-Nong 67, protective spray, rated after six days
Experimental: The active compounds, separately or jointly, were prepared as a stock solution with 0.25% by weight of active compound in acetone or DMSO. 1% by weight of the emulsifier Uniperol® EL (wetting agent having emulsifying and dispersing action based on ethoxylated alkylphenols) was added to this solution, and the solution was diluted with water to the desired concentration.
Leaves of potted rice seedlings of the cultivar “Tai-Nong 67” were sprayed to runoff point with an aqueous suspension of the concentration of active compound stated below. The next day, the plants were inoculated with an aqueous spore suspension of Cochliobolus miyabeanus. The test plants were then placed in climatized chambers at 22-24° C. and 95-99% relative atmospheric humidity for six days. The extent of the development of the infection on the leaves was then determined visually.
Evaluation is carried out by determining the percentage of infected plants. These percentages were converted into efficacies.
The efficacy (E) is calculated as follows using Abbot's formula: E=(1−α/β)·100 α corresponds to the fungicidal infection of the treated plants in % and β corresponds to the fungicidal infection of the untreated (control) plants in %
An efficacy of 0 means that the infection level of the treated plants corresponds to that of the untreated control plants; an efficacy of 100 means that the treated plants are not infected.
The expected efficacies of mixtures of active compounds are determined using Colby's formula (Colby, R. S. Weeds, 15, 20-22, 1967) and compared with the observed efficacies.
Colby's formula: E=x+y−x·y/100 • E expected efficacy, expressed in % of the untreated control, when using the mixture of the active compounds A and B at the concentrations a and b • x efficacy, expressed in % of the untreated control, when using the active compound A at the concentration a • y efficacy, expressed in % of the untreated control, when using the active compound B at the concentration b

| SMILES | Efficacy in % of the untreated control (4 ppm in the spray liquor) | Efficacy in % of the untreated control (16 ppm in the spray liquor) |
| --- | --- | --- |
| CC1CCN(c2c(-c3c(F)cccc3Cl)c(Cl)nc3ncnn23)CC1 [A] | 29% | 53% |
| C[C@H](Nc1c(-c2c(F)cc(F)cc2F)c(Cl)nc2ncnn12)C(F)(F)F [B] | 5% | 41% |
| CC1CCN(c2c(-c3c(F)cc(F)cc3F)c(Cl)nc3ncnn23)CC1 [compound I, 5-chloro-7-(4-methylpiperidin-1-yl)-6-(2,4,6-trifluorophenyl)-[1,2,4]triazolo[1,5-a]pyrimidine] | 5% | 17% |
| O=[N+]([O-])c1cc(C(F)(F)F)c(Cl)c([N+](=O)[O-])c1Nc1ncc(C(F)(F)F)cc1Cl [compound II, 3-chloro-N-[3-chloro-2,6-dinitro-4-(trifluoromethyl)phenyl]-5-(trifluoromethyl)-2-pyridinamine] | 5% | 17% |
